The record followed here is patent US9176118B2, “Methods employing insect models for determining intestinal absorption of chemical compounds” (Entomopharm ApS, priority 2009, dated 2015).

The series in a line: Decapitated locust model: hemolymph drug concentration by LCMS after administration via esophageal catheter. To be noted: male, Locusta migratoria (locust), in vivo. Here is the method:
The insects may be obtained from local suppliers or bred in house. The grasshoppers were reared under crowded conditions at 28° C. and a 12:12 dark:light photocycle and fed fresh grass and bran. Before experiments the grasshoppers were fed ecologically cultivated wheat for two weeks. Animals used are adult males (in some experiments females) between two to four weeks after adult emergence. After decapitation, test compounds are administrated via a catheter or a probe inserted into the midgut of the animal. At various times after administration hemolymph samples are taken for quantitative determination of drug concentration in the hemolymph. The samples are snap-frozen and stored until analyses. Drug concentration is analysed by HPLC, LC/MSMS or other methods.
The head of male locusts (Locusta migratoria), which have been starving for 12 hours, was cut off and a plastic catheter was inserted under microscope into the esophagus. 20 μl of quinidine (0.1 mg/ml) was administered via the catheter by using a Hamilton syringe.
(§1) 10 and 30 minutes after administration (10 μl) hemolymph was collected with a calibrated capillary tube by puncturing the ventral membrane anterior to the thorax and immediately blown into a tube containing 40 μl aqua dest and 100 μl of acetonitrile. Each sample was centrifuged for 5 minutes (10 000g at 4° C.). 100 μl of the supernatants were transferred to new test tubes for LCMS analysis.
as §1, with “The head of male locusts (Locusta migratoria), which have been starving for 12 hours, was cut off and a plastic catheter was inserted under microscope into the esophagus. 20 μl of quinidine (1 mg/ml) was administered via the catheter by using a Hamilton syringe. 10 and” for “10 and”
The head of male locusts (Locusta migratoria), which have been starving for 12 hours, was cut off and a plastic catheter was inserted under microscope into the esophagus. 20 μl of propranolol (0.1 mg/ml) was administered via the catheter by using a Hamilton syringe.
10 and 30 minutes after administration (10 μl) hemolymph was collected with a calibrated capillary tube by puncturing the ventral membrane anterior to the thorax and immediately blown into a tube containing 40 μl aqua dest and 100 μl of acetonitrile. Each sample was centrifuged for 5 minutes (10 000g at 4° C.). 100 μl of the supernatants were transferred to new test tubes for LCMS analysis. […]

Turning to `Cn1c(=O)c2c(ncn2C)n(C)c1=O` [caffeine], the concentration at 10 min worked out at 177 ng/mL (2 µg per animal) and 1150 ng/mL (20 µg per animal). This compound gave a concentration at 30 min (2 µg per animal) of 276 ng/mL and a concentration at 30 min (20 µg per animal) of 1660 ng/mL.
